Literature values as cited in patent US20130317456A1, “Transdermal Delivery Systems” (Durect Corporation, priority 2006, published 2013).

Settings: octanol/water partition coefficient

log P	Compound
around 1.95	Cc1cccc(C)c1NC(=O)C1CCCCN1C (centres unmarked) [Mepivacaine]
around 2.9	CCCN1CCCC[C@H]1C(=O)Nc1c(C)cccc1C [Ropivacaine]
